Laboratory results as given in patent US20120016119A1, “NOVEL PYRROLO(2,3-d)PYRIMIDINE COMPOUND” (priority 2009, published 2012).

Columns and labels:
human GPR119 = target: T1, human GPR119 (Homo sapiens, UniProt Q8TDV5); experiment: GPR119 agonistic activity: cAMP production in human GPR119-expressed CHO cells (HTRF cAMP kit); type: cell-based; settings: human GPR119-expressed CHO cells (L8-18), 37° C. for 30 minutes, 500 μM IBMX
T1 construct: expressed in transfected cells; host or cells: CHO cells (LM-3 mock cells carrying luciferase reporter pLG3-CRE6-CRE-VIP); resulting line L8-18
T1 sequence (Q8TDV5 1-335): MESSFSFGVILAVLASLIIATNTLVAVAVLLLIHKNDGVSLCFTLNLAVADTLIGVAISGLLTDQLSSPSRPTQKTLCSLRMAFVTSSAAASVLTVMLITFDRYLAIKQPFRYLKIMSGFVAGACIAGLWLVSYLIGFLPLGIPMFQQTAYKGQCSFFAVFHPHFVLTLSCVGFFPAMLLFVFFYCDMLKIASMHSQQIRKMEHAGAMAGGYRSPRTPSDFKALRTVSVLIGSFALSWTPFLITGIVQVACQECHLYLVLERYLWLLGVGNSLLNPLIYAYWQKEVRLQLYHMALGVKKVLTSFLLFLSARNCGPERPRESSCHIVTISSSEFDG
Protocol: The present experiment is directed to evaluate GPR119 agonistic activity (in vitro) of test compounds by adding the compounds to human GPR119-expressed CHO cells to determine cAMP production of the cells.
Human GPR119-expressed CHO cells (L8-18) were prepared by introducing an expression vector pMSF1-GPR119 (Geneticin-resistance) carrying human GPR119 genes into CHO cells (LM-3; Mock cells) wherein lusiferase expression vector pLG3-CRE6-CRE-VIP (Hygromycin B-resistance) were introduced according to the known method (The Journal of Biological Chemistry Vol. 274 (34), pp. 23940-23947).
Cryopreserved L8-18 cells were melted, and then suspended into 9-fold amounts of assay buffer and centrifuged (1000 rpm, 5 minutes) at room temperature. The supernatant was removed, and then the precipitated cells were resuspended into assay buffer (4 mL). Thereto was added assay buffer which contained IBMX (manufactured by Sigma, #17018-1G), and 7.5×10^4 cells/mL of cell suspension was prepared. The cell suspension was let stand at room temperature for 15 minutes, and then to each well of 96 half well white plate (manufactured by Corning Incorporated, #3693) were added the cell suspension (20 μL) and a solution of a test compound or AR231453 (5 μL; a total of 25 (final concentration: 1500 cells/well, 500 μM IBMX, 1% dimethylsulfoxide). The mixture was incubated at 37° C. for 30 minutes, and then to each well were added a 20-fold diluted solution (each 12.5 μL/well) of cAMP-d2 and Anti cAMP-Cryptate of HTRF cAMP kit (manufactured by Cisbio, #62AM4PEC). The mixture was stirred, and then was let stand for 1 hour under light shielding. A fluorescence intensity was measured by time-resolved fluorescence mode (Ex: 320 nm, Em: 665 nm, 620 nm) of Microplate Reader (ARVO or SpectraMax M5e). In ARVO, Ratios [Ratio=(665 nm/620 nm)×10^4)] of cAMP-d2 to Anti cAMP-Cryptate were calculated from the resulting fluorescence intensity, and cAMP concentrations of each well were calculated from cAMP standard curve prepared by the Ratios and GraphPad Prism. In SpectraMax M5e, cAMP concentrations of each well were calculated on the basis of a standard curve prepared by the resulting fluorescence intensity and Softmax Pro.
EC50 of test compounds were calculated by GraphPad Prism.

C57BL/6N male mice = experiment: Inhibitory effect on increased blood glucose after oral glucose load in fasted mice; type: in vivo; settings: 10 mg/kg orally, one hour before glucose load (3 g/kg, p.o.), C57BL/6N male mice fasted 21 hours
Protocol: C57BL/6N male mice was fasted for 21 hours, and then a stratified randomization allocation was carried out by EXSUS Ver7.6 NP (Arm Systex Co., Ltd.) based on body weights (n=8). Vehicle (solvent: 0.1% Tween 80/0.5% hydroxypropyl methylcellulose) (control group) or a suspended solution of a test compound in the vehicle (test compound group) was orally administered to the mice, and a glucose load (3 g/kg, p.o.) was carried out one hour after administration of a test compound. Blood samplings from the test mice were carried out at each time point of just before administration of drug (−60 min), immediately before glucose load (0 min), 30 minutes (30 min), 60 minutes (60 min) and 120 minutes (120 min) after glucose load. Blood glucose levels at each time point were measured by glucose CII-Test Wako (manufactured by Wako Pure Chemical Industries, Ltd.), AUC (0-120 min) was calculated in each administration group on the basis of the measured value, and evaluated by time-dependent variance analysis and Student's t-Test using EXSUS Ver7.6NP (Arm Systex Co., Ltd.).
An inhibitory effect on increased blood glucose of each test compound (A ratio value of AUC (0-120 min) of the test compound group in case that AUC (0-120 min) of the control group is 100) is shown in the following Table 36.

EC50 (human GPR119) [µM]	SMILES	Inhibitory Effect on Increased Blood Glucose (ratio value of AUC (0-120 min) of test compound group, control group = 100) (C57BL/6N male mice)
< 1	CCc1cnc(N2CCC(n3cc(F)c4c(Nc5ccc(C(=O)N(C)CCCO)cc5F)ncnc43)CC2)nc1 [Example Compound 63]	89
< 1	CCc1cnc(N2CCC(n3cc(F)c4c(Nc5ccc(C(=O)N(C)C)cc5Cl)ncnc43)CC2)nc1 [Example Compound 29]	88
